The values that follow come from patent publication US20250276009A1, “Therapeutic use of hydrogen sulfide in frostbite injury” ([(The)] London Health Sciences Centre Research Inc., priority 2024, published 2025).

Read-outs that look alike come from different tables or passages of the source.

Assay [1] concerns frostbite injury on the dorsal skin of C57BL/6 mice. The assay is described as follows: Frostbite wound size / wound healing after daily topical application of H2S donor in vehicle cream. Conditions: for reduction of frostbite wound from day 4 to day 15 versus vehicle control: 150 μM STS or 200 μmol/kg GYY4137 in hyaluronan/phosphatidylethanolamine vehicle cream; for reduction of frostbite wound from day 4 to day 15 versus vehicle control / frostbite wound size compared to vehicle-treated control mice: daily topical; for frostbite wound healing compared to vehicle control group: daily topical in vehicle cream until day 15. The format is in vivo, C57BL/6 mice (Mus musculus). From the text: The Animal Use Committee of the University of Western Ontario approved all experimental procedures. The experimental procedures were considered as Category D from the Canadian Council of Animal Care's Categories of Invasiveness for Animal Experiments. A total of 25 […] mice aged between 8-10 weeks old were obtained from Charles River Canada (Senneville, Quebec, Canada) and housed 5 per cage under a 12-hour light/dark cycle at the Health Sciences Animal Care Facility at the University of Western Ontario (London, Ontario, Canada). Mice were randomly assigned to 5 groups being healthy control (n=5), crush control (n=5), vehicle control (n=5), 200 nM AP39 (n=5) and 1 μM AP39 (n=5).
To ease the process of skin preparation, mice were initially anesthetized with a combination of 20 mg/ml xylazine and 100 mg/mL ketamine intraperitoneally, and the dorsal fur of the animals were shaved using electric clippers from the top of the hind legs to the base of the neck. A depilatory cream was then used to remove any fur still remaining. General anesthesia was maintained by inhalation of 5% isoflurane and oxygen delivered at 400 mL/minute to minimize the time of recovery post-anesthesia. Following complete fur removal, the skin of the animal was cleaned completely of the hair removal cream using an alcohol prep pad. Next, a silicone sheet was used as a template to trace a uniform circle on the surface of the skin using a permanent marker. The circular outline on the back of the animal was used as a guide during frostbite injury (see FIGS. 1A to 1E).
The vehicle cream containing hyaluronan and phosphatidylethanolamine (referred to as HEPE) as active ingredients, was provided by Dr. Eva Turley, and allowed for delivery of AP39 to the vascularized layers of the dermis. AP39 was generously provided by Dr. Matthew Whiteman (Exeter, UK) and diluted to a stock concentration of 1 mM in DMSO. […] To prepare the cream+H2S donor compound, the H2S donor was added via micropipette combined by stirring and subsequent mixing using a vortex device to final concentrations of 200 nM, 1 µM and 150 μM.

The test system is the same in assay [2]. The assay is described as follows: Histopathological scoring (H&E) of frostbite wound tissue, day 15. Type of assay: in vivo, C57BL/6 mice (Mus musculus). The settings on record: for chronic inflammation (histological score 0-3) vs vehicle control: 200 μmol/kg GYY4137 or 150 μM STS; for progress of frostbite wound healing phase (histopathology, collective): daily topical in vehicle cream, day 15. Here is the method: The formalin-fixed skin tissue samples were embedded in paraffin blocks and sectioned at 8-μm thick on a microtome and collected on SuperFrost Plus® glass slides (J1800AMNZ, Thermo Fisher Scientific Inc., Germany). Histology was performed on the tissue sections using hematoxylin and eosin (H&E) staining to visualize general tissue morphology and assess the degree of tissue injury. A modified version of a previously developed histological scoring system established by Abramov et al was used for this study. The histopathological scoring was assessed blindly by a dermatopathologist for 5 parameters of healing (acute inflammation, chronic inflammation, amount of granulation tissue, fibroblast maturation and re-epithelialization) and assigned a score as per the following scheme: 0=None; 1=Scant; 2=Moderate; 3=Abundant. Acute inflammation was scored based on the presence of neutrophils while chronic inflammation was evaluated based on the presence of plasma cells and monocytes. Fibroblast maturation was determined on the basis of shape and alignment of these cells.

Assay [3] has as its system cleaved caspase-3. The assay is described as follows: Immunofluorescence staining of frostbite wound tissue, day 15: apoptosis marker. Conditions: daily topical in vehicle cream, day 15, vs vehicle control. The format is in vivo, C57BL/6 mice (Mus musculus).
Experimental: (§1) Based on a previously validated model [1], 100% ceramic magnets (diameter 18.0 mm, thickness 5.0 mm, weight 4.5 g) were used to induce frostbite injury. Magnets were frozen in dry ice (−80° C.) prior to animal skin preparation. The dorsal skin of C57BL/6 mice (Mus musculus) was pinched to create a skin fold and a silicone sheet was placed underneath as illustrated in FIG. 1D. The silicone sheet acted as a barrier to prevent the mice from possible systemic hypothermia while creating a precise injury and maximizing survival. Two frozen magnets were then placed on the skin from opposite sides of the skin fold such that they adhered with the middle of the circle outline at the peak of the fold's center as described by Auerbach et al., [1] and illustrated in FIG. 1D. After 1 minute, the magnets were removed and new frozen magnets simultaneously placed in order to keep the freezing temperature of the magnets consistent and ensured that no thawing of the skin occurred. A total of 3 magnet exchange cycles occurred in order to induce frostbite injury to the mice for 3 minutes after which the skin was allowed to thaw completely. […] The animals were placed on a heating pad set to 37° C. to mitigate the risk of death due to systemic hypothermia. Upon induction of frostbite injury, the mice were randomly assigned to the following groups: vehicle cream control, 200 nM AP39 plus vehicle cream, 1 μM AP39 plus vehicle cream, 150 μM STS plus vehicle cream, 200 μmol/kg GYY4137 plus vehicle cream, and received daily topical application of vehicle cream without H2S donor, vehicle cream containing 200 nM AP39 (200 μL), vehicle cream containing 1 μM AP39 (200 μL), vehicle cream containing 150 μM STS (200 μL) and vehicle cream containing 200 μmol/kg GYY4137 (200 μL) respectively until time of sacrifice.
Another group of mice that received no frostbite injury or room temperature magnet placement served as healthy controls. […]
Assay [4] relates to CD31. The assay is described as follows: Immunofluorescence staining of frostbite wound tissue, day 15: vascularization and angiogenesis marker. The format is in vivo, C57BL/6 mice (Mus musculus). The settings on record: for angiogenesis compared to vehicle control: daily topical in vehicle cream, day 15, p<0.01.
Experimental: as §1
(§2) Post-procedure analgesia included administration of meloxicam at 1 mg/kg/day for 3 days. Another group of mice that received no frostbite injury or room temperature magnet placement served as healthy controls. All groups of mice were sacrificed by CO2 euthanasia on day 15 after frostbite induction or room temperature magnet placement, and samples of the injured dorsal skin tissue were collected and stored in 10% neutral buffered formalin for histopathological analysis. The animals were euthanized on day 15 because this is the time point at which markers of wound healing were expected to be best seen in the wound as previously reported [5].
(§3) Immunofluorescence staining was performed to detect the expression of cleaved caspase-3 (1:100; a marker for apoptosis and is being used to assess frostbite damage), CD31 (1:100; a marker of vascularization and angiogenesis, as it is found on early endothelial cells), KI-67 (1:50; a marker of proliferation, which is abundant in a healing wound as granulation tissue forms and re-epithelialization occurs), fibronectin (1:100; secreted by fibroblasts to generate granulation tissue, which is the new connective tissue that covers a wound.), cytokeratin (1:200; a marker of differentiation and proliferation of keratinocytes, which are important for re-epithelialization of a wound) and CD163 (1:200; a macrophage-specific marker during wound healing) [7, 8]. These antibodies were purchased from Abcam in Toronto, Canada to examine the degree of frostbite injury as well as important healing stages including angiogenesis, re-epithelialization, granulation tissue formation and inflammation. Following a rehydration step in xylene and decreasing series of alcohol (100%, 95%, 70% and 50%) and de-ionized water, the tissue sections were washed with 1× phosphate buffered saline (PBS) for 10 minutes.
Assay [5] relates to KI-67. The assay is described as follows: Immunofluorescence staining of frostbite wound tissue, day 15: proliferation marker. The format is in vivo, C57BL/6 mice (Mus musculus). Conditions: for cell proliferation compared to vehicle control: daily topical in vehicle cream, day 15, p<0.001.
Experimental: as §1, §2
(§4) Immunofluorescence staining was performed to detect the expression of cleaved caspase-3 (1:100; a marker for apoptosis and is being used to assess frostbite damage), CD31 (1:100; a marker of vascularization and angiogenesis, as it is found on early endothelial cells), KI-67 (1:50; a marker of proliferation, which is abundant in a healing wound as granulation tissue forms and re-epithelialization occurs), fibronectin (1:100; secreted by fibroblasts to generate granulation tissue, which is the new connective tissue that covers a wound.), cytokeratin (1:200; a marker of differentiation and proliferation of keratinocytes, which are important for re-epithelialization of a wound) and CD163 (1:200; a macrophage-specific marker during wound healing) [7, 8]. These antibodies were purchased from Abcam in Toronto, Canada to examine the degree of frostbite injury as well as important healing stages including angiogenesis, re-epithelialization, granulation tissue formation and inflammation. […]
In assay [6] the test system is fibronectin. The assay is described as follows: Immunofluorescence staining of frostbite wound tissue, day 15: granulation tissue marker. The format is in vivo, C57BL/6 mice (Mus musculus). The settings on record: for granulation tissue formation compared to vehicle control: daily topical in vehicle cream, day 15, p<0.001; for fibronectin expression: day 15.
Experimental: as §1, §2, §3
For assay [7], the system named is CD163. The assay is described as follows: Immunofluorescence staining of frostbite wound tissue, day 15: macrophage-specific marker. Type of assay: in vivo, C57BL/6 mice (Mus musculus). The settings on record: for CD163 expression: day 15.
Experimental: as §1, §2, §4
In assay [8] the test system is cytokeratin. The settings on record: day 15.
Experimental: as §1
Post-procedure analgesia included administration of meloxicam at 1 mg/kg/day for 3 days. Another group of mice that received no frostbite injury or room temperature magnet placement served as healthy controls. All groups of mice were sacrificed by CO2 euthanasia on day 15 after frostbite induction or room temperature magnet placement, and samples of the injured dorsal skin tissue were collected and stored in 10% neutral buffered formalin for histopathological analysis. The animals were euthanized on day 15 because this is the time point at which markers of wound healing were expected to be best seen in the wound as previously reported [5]. […]
Setting [9] is: 150 μM STS with Nivea, vs Nivea alone.
The mark [10] stands for this setting: 150 μM STS in Aveeno vs Aveeno without STS.
Where [11] appears, read: 150 μM STS in Dove vs Dove without STS.
Where [12] appears, read: 150 μM STS in Neutrogena vs Neutrogena without STS.
The mark [13] stands for this setting: 150 μM STS in Nivea vs Nivea without STS.
[14] abbreviates: 1 μM AP39 vs 200 nM AP39 and vehicle control, day 15, p<0.05.
Setting [15] is: 1 μM AP39, relative to 200 nM AP39, day 15, p<0.05.

Consider `C1COCCN1.COc1ccc(P(=S)(S)N2CCOCC2)cc1` (centres unmarked) [GYY4137], for which, in assay [1], the “reduction of frostbite wound from day 4 to day 15 versus vehicle control” value is “slightly smaller than that of the vehicle control” and the “frostbite wound healing compared to vehicle control group” value is “improved wound healing”. Moreover, the “chronic inflammation (histological score 0-3) vs vehicle control” value in assay [2] (day 15, p>0.05) is on record as “did not show significant difference”. Besides, the “progress of frostbite wound healing phase (histopathology, collective)” value (“progress … (histopathology, collective)” for short) in assay [2] was “hastened frostbite wound healing from inflammatory to proliferative phase”. In addition, in assay [3], the “apoptosis in frostbite injury (cleaved caspase-3 expression)” value (from here on “apoptosis in frostbite injury”) is on record as “no effect”. In assay [4], the “angiogenesis compared to vehicle control” value was “improved”. Also, in assay [5], the “cell proliferation compared to vehicle control” value is “improved”. Moreover, the “granulation tissue formation compared to vehicle control” value in assay [6] is reported as “improved”.

For the compound `O=S([O-])([O-])=S.[Na+].[Na+]` [STS, sodium thiosulfate], the “wound size compared to the corresponding vehicle control without STS” value in assay [1] (150 μM STS in commercially available creams (Aveeno, Dove, Neutrogena, Nivea), day 4 to day 15) is reported as “progressively reduced wound size”. Besides, the “reduction of frostbite wound from day 4 to day 15 versus vehicle control” value in assay [1] was “slightly smaller than that of the vehicle control”. The “wound size, day 15” value is “reduced wound size” in assay [1] (150 μM STS with Aveeno, vs Aveeno alone); “reduced wound size” in assay [1] (150 μM STS with Dove, vs Dove alone); “reduced wound size” in assay [1] (setting [9]). Also, in assay [1] (setting [9]), the “wound size, day 4” value is “reduced wound size”. Also, in assay [1] (STS via Aveeno and Nivea creams compared to Dove and Neutrogena), the “wound healing, comparison of delivery creams” value was “improved wound healing compared to Dove® and Neutrogena®”. In addition, the “frostbite wound healing compared to vehicle control group” value in assay [1] is on record as “improved wound healing”. Further, in assay [2] (day 15, p>0.05), the “chronic inflammation (histological score 0-3) vs vehicle control” value is “did not show significant difference”. The “progress … (histopathology, collective)” value in assay [2] is listed as “hastened frostbite wound healing from inflammatory to proliferative phase”. Moreover, the “apoptosis in frostbite injury” value in assay [3] was “no effect”. Further, the CD31 expression entry in assay [4] (150 μM STS in Aveeno vs Aveeno without STS, day 15) is “significant upregulation”; in assay [4] (150 μM STS in Dove vs Dove without STS, day 15), “significant upregulation”; in assay [4] (150 μM STS in Neutrogena vs Neutrogena without STS, day 15), “No significant change”; in assay [4] (150 μM STS in Nivea vs Nivea without STS, day 15), “significant upregulation”. The “angiogenesis compared to vehicle control” value in assay [4] was “improved”. Further, the “cell proliferation compared to vehicle control” value in assay [5] is reported as “improved”. For the same compound, the CD163 expression entry in assay [7] (setting [10]) is reported as “significant increase”; in assay [7] (setting [11]), “significant increase”; in assay [7] (setting [12]) it was “decrease in CD163 expression albeit not significant”; in assay [7] (setting [13]), “significant increase”. The fibronectin expression result in assay [6] (setting [10]) is given as “significantly increased”; in assay [6] (setting [11]) it was “did not increase fibronectin expression significantly”; in assay [6] (setting [12]) it was “did not increase fibronectin expression significantly”; in assay [6] (setting [13]), “significantly increased”. Also, the “granulation tissue formation compared to vehicle control” value in assay [6] was “improved”. For the same compound, the cytokeratin expression result in assay [8] (setting [10]) is “significantly increased”; in assay [8] (setting [11]), “No significant change”; in assay [8] (setting [12]), “significantly increased”; in assay [8] (setting [13]), “significantly increased”.

Consider `O=C(CCCCCCCCC[P+](c1ccccc1)(c1ccccc1)c1ccccc1)Oc1ccc(-c2cc(=S)ss2)cc1.[Br-]` [AP39, (10-oxo-10-(4-(3-thioxo-3H-1,2-dithiol-5-yl)phenoxy)decyl)triphenylphosphonium bromide], for which the “frostbite wound size compared to vehicle-treated control mice” value in assay [1] (200 nM AP39 in vehicle cream containing hyaluronan and phosphatidylethanolamine, day 4 to day 15) is recorded as “progressively reduced wound size”; in assay [1] (1 μM AP39 in vehicle cream containing hyaluronan and phosphatidylethanolamine, day 4 to day 15), “progressively reduced wound size”. In addition, in assay [1], the “frostbite wound healing compared to vehicle control group” value is on record as “improved wound healing”. Moreover, the “chronic inflammation (histological score 0-3)” value was “did not change” in assay [2] (200 nM AP39, day 15, p>0.05) and “did not change” in assay [2] (1 μM AP39, day 15, p>0.05). Moreover, the “fibroblast maturation (histological score 0-3)” value in assay [2] (200 nM AP39 vs 1 μM AP39 and vehicle control, day 15, p<0.05) is “highest”. Moreover, the “acute inflammation (histological score 0-3)” value in assay [2] (setting [14]) is on record as “significantly greater”. Moreover, the “amount of granulation tissue (histological score 0-3)” value in assay [2] (setting [14]) is “markedly increased”. Also, the “wound re-epithelialization (histological score 0-3)” value in assay [2] (AP39 (200 nM and 1 μM) vs vehicle control, day 15, p>0.05) was “increased wound re-epithelialization (epithelial restitution) albeit not significantly different”. Besides, in assay [2], the “progress … (histopathology, collective)” value is “hastened frostbite wound healing from inflammatory to proliferative phase”. Besides, the “apoptosis in frostbite injury” value in assay [3] is “no effect”. The CD31 expression entry is reported as “markedly expressed” in assay [4] (200 nM AP39, day 15, p<0.05) and “significantly reduced” in assay [4] (setting [15]). In addition, the “angiogenesis compared to vehicle control” value in assay [4] was “improved”. Also, the KI-67 expression entry is “markedly expressed” in assay [5] (200 nM AP39, day 15, p<0.05) and “significantly reduced” in assay [5] (setting [15]). For the same compound, the “cell proliferation compared to vehicle control” value in assay [5] is on record as “improved”. Besides, the “CD163 expression (M2-like anti-inflammatory macrophages)” value in assay [7] (200 nM AP39, day 15) was “increased anti-inflammatory activity”. In addition, the “fibronectin expression compared to vehicle control mice” value in assay [6] (200 nM AP39, day 15) is listed as “significantly increased expression”; in assay [6] (1 μM AP39, day 15), “significantly increased expression”. In addition, the “granulation tissue formation compared to vehicle control” value in assay [6] is on record as “improved”.
